The source made the active and inactive calls. The calls are words filed in the database; no cut-off is given here.
Legend:
[1] = target: T1, Glutamate NMDA receptor; GRIN1/GRIN2A (Homo sapiens, UniProt Q05586+Q12879); assay: Inhibition of human GluN1a/GluN2A receptor expressed in HEK293 cells assessed as relative inhibition of glycine/glutamate-induced current at 100 uM measured at +40 mV holding potential by whole-cell patch clamp method; type: cell-based
Acetylcholinesterase = Acetylcholinesterase (Homo sapiens, UniProt P22303)
Description: Inhibition of human recombinant AChE assessed as reduction in cholinesterase activity using acetylthiocholine iodide as substrate by Ellman's method

Cholinesterase [2] = target: T2, Cholinesterase (Homo sapiens, UniProt P06276)
Description: Inhibition of human plasmatic BuChE assessed as reduction in cholinesterase activity by Ellman's method

[3] = target: T1, Glutamate NMDA receptor; GRIN1/GRIN2A
Description: Inhibition of human GluN1a/GluN2A receptor expressed in HEK293 cells assessed as inhibition of glycine/glutamate-induced current measured at -60 mV holding potential by whole-cell patch clamp method

[4] = target: T3, Glutamate NMDA receptor; GRIN1/GRIN2B (Homo sapiens, UniProt Q05586+Q13224)
Description: Inhibition of human GluN1a/GluN2B receptor expressed in HEK293 cells assessed as inhibition of glycine/glutamate-induced current measured at -60 mV holding potential by whole-cell patch clamp method

[5] = target: T1, Glutamate NMDA receptor; GRIN1/GRIN2A; remark: listed apart in the source
Description: Inhibition of human GluN1a/GluN2A receptor expressed in HEK293 cells assessed as relative inhibition of glycine/glutamate-induced current measured at +40 mV holding potential by whole-cell patch clamp method

[6] = target: T3, Glutamate NMDA receptor; GRIN1/GRIN2B; remark: listed apart in the source
Description: Inhibition of human GluN1a/GluN2B receptor expressed in HEK293 cells assessed as relative inhibition of glycine/glutamate-induced current measured at +40 mV holding potential by whole-cell patch clamp method

[7] = Toxicity in Wistar rat assessed as prepulse inhibition of acoustic startle response at 0.3 mg/kg, ip measured for 10 mins by open field test relative to control; type: organism-based; details: in vivo
Cholinesterase [8] = target: T2, Cholinesterase; assay: Inhibition of human plasmatic BuChE assessed as reduction in cholinesterase activity at 100 uM by Ellman's method
[9] = Ratio of drug level in brain to plasma in ICR mouse at 5 mg/kg, ip measured after 15 mins by HPLC-MS analysis; type: ADME, organism-based; details: brain and plasma, read-out: BBR
[10] = Drug uptake in ICR mouse plasma at 5 mg/kg, ip measured after 15 mins by HPLC-MS analysis; type: ADME, organism-based
[11] = Toxicity in Wistar rat assessed as prepulse inhibition of acoustic startle response at 1 to 5 mg/kg, ip measured for 10 mins by open field test relative to control; type: organism-based; details: in vivo, dose 1-5 mg/kg
[12] = Drug uptake in ICR mouse brain at 5 mg/kg, ip measured after 15 mins by HPLC-MS analysis; type: ADME, organism-based; details: read-out: Drug uptake
[13] = Drug uptake in ICR mouse plasma at 5 mg/kg, ip measured after 60 mins by HPLC-MS analysis; type: ADME, organism-based
[14] = Drug uptake in ICR mouse brain at 5 mg/kg, ip measured after 60 mins by HPLC-MS analysis; type: ADME, organism-based; details: read-out: Drug uptake
Rattus norvegicus [15] = assay: Effect on spontaneous locomotory activity in Wistar rat at 1 mg/kg, ip measured for 10 mins by open field test; type: functional, organism-based
Rattus norvegicus [16] = assay: Reduction in total distance travelled in Wistar rat at 5 mg/kg, ip measured for 10 mins by open field test relative to control; type: functional, organism-based
Rattus norvegicus [17] = assay: Effect on spontaneous locomotory activity in Wistar rat at 5 mg/kg, ip measured for 10 mins by open field test; type: functional, organism-based
[18] = Toxicity in Wistar rat assessed as hyperlocomotion at 5 mg/kg, ip measured for 10 mins by open field test relative to control; type: organism-based; details: in vivo

T2 sequence (P06276 whole entry): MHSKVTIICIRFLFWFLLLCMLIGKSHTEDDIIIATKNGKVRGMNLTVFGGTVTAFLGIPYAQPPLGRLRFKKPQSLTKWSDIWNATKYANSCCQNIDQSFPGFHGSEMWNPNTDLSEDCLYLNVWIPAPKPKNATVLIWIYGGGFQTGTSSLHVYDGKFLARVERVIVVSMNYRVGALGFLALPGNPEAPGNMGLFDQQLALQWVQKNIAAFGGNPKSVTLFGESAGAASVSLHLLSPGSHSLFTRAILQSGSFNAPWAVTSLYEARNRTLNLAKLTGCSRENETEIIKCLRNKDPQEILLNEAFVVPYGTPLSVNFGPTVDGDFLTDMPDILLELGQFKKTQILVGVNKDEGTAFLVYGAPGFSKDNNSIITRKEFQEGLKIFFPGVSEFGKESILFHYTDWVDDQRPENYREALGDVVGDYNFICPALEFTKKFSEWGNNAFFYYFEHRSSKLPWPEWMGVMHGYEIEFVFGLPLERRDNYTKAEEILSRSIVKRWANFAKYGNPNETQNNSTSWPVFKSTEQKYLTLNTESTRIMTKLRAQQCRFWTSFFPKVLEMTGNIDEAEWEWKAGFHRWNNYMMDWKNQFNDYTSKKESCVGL
Sequence of Acetylcholinesterase (P22303 whole entry): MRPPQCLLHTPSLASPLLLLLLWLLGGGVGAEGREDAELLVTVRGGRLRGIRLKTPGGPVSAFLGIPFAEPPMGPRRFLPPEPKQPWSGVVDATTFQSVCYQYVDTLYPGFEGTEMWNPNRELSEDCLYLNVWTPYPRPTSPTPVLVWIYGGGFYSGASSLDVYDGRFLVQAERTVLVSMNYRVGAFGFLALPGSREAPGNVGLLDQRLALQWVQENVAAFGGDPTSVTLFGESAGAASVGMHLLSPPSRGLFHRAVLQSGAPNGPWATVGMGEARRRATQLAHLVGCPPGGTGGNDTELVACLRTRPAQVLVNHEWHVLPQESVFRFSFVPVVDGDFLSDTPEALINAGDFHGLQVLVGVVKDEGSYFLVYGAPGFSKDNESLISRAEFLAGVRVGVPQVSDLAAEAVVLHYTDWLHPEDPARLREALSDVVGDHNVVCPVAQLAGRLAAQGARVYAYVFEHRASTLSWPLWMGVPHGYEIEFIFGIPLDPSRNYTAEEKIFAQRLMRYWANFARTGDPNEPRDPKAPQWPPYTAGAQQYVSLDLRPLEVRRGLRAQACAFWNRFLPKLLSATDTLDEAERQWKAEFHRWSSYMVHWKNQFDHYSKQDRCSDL
T3 sequence (Q13224 whole entry, looked up, other chains not shown): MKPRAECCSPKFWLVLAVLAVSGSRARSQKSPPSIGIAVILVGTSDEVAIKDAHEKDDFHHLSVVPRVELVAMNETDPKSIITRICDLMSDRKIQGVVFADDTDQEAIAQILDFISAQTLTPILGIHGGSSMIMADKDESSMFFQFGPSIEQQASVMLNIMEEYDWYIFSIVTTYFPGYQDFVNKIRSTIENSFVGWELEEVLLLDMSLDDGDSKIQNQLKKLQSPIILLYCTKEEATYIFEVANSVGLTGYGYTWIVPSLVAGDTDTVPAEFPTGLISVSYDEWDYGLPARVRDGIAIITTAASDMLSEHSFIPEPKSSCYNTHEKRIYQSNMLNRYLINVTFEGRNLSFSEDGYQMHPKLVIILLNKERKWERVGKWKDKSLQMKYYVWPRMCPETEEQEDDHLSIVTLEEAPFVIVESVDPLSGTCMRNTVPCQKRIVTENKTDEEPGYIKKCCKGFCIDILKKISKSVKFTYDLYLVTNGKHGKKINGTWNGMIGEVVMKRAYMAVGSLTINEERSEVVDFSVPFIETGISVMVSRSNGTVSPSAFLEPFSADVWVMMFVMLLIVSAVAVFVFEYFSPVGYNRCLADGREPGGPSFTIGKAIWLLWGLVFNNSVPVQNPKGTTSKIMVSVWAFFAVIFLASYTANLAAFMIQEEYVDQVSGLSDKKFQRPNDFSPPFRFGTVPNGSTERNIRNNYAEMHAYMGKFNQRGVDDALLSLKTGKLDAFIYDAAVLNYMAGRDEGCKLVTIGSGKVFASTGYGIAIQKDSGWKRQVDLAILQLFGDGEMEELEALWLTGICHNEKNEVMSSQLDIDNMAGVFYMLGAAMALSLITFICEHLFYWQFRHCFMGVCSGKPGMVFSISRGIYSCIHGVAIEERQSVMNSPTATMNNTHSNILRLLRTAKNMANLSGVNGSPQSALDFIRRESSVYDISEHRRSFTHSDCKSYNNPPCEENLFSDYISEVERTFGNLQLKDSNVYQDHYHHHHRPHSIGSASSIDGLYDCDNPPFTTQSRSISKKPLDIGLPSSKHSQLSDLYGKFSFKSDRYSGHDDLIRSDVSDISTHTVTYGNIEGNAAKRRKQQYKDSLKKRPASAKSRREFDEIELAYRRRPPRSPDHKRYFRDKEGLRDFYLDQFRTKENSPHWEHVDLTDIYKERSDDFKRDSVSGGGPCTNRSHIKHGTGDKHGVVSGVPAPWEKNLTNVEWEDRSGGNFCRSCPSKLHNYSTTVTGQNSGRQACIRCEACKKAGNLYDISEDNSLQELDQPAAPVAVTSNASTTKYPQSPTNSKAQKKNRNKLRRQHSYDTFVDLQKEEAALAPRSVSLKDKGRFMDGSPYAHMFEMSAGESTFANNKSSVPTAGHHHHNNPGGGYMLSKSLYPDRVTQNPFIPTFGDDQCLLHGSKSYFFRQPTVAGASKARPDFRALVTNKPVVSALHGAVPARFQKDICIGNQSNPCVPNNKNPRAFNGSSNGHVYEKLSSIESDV

SMILES	inhibition [1] [%]	IC50 (Acetylcholinesterase) [µM]	IC50 (Cholinesterase [2]) [µM]	IC50 [3] [µM]	IC50 [4] [µM]	IC50 [5] [µM]	IC50 [6] [µM]	Activity [7]	inhibition (Cholinesterase [8]) [%]	Kp at 0.25 h [9]	concentration at 0.25 h [10] [nM]	Activity [11]	concentration at 0.25 h [12] [nM]	concentration at 1 h [13] [nM]	concentration at 1 h [14] [nM]	Activity (Rattus norvegicus [15])	Activity (Rattus norvegicus [16])	Activity (Rattus norvegicus [17])	Activity [18]
COc1ccc2nc3c(c(N)c2c1)CCC3	66.1	8.22	10.6	4.16	14.6	66.8	88.9	–	–	–	–	–	–	–	–	–	–	–	–
C[C@]12N[C@H](Cc3ccccc31)c1ccccc12 [DIZOCILPINE]	–	–	–	–	–	–	–	Toxic	–	–	–	–	–	–	–	–	–	–	–
Cc1cccc2nc3c(c(N)c12)CCC3	22	0.415	0.471	21.3	16.6	–	–	–	–	–	–	–	–	–	–	–	–	–	–
Nc1c2c(nc3c(Br)cc(Br)cc13)CCC2	55.7	15.1	–	10.2	17.1	–	–	–	34	–	–	–	–	–	–	–	–	–	–
Cc1cccc2nc3c(c(N)c12)CCCC3	40.5	0.125	0.495	18.5	14.2	–	–	–	–	–	–	–	–	–	–	–	–	–	–
Cc1ccc2nc3c(c(N)c2c1)CCCC3	18.5	15.5	13.7	12.3	13.2	–	–	–	–	–	–	–	–	–	–	–	–	–	–
Nc1c2c(nc3c(Br)cc(Br)cc13)CCCCC2	80.7	15.1	89.9	21.5	26.9	–	–	–	–	–	–	–	–	–	–	–	–	–	–
Nc1c2c(nc3ccc(F)cc13)CCCCC2	38.5	0.624	0.569	14.5	19.8	–	–	–	–	–	–	–	–	–	–	–	–	–	–
Cl.Nc1c2c(nc3ccc(Cl)cc13)CCC2	56.5	1.58	6.88	21	8.69	84.2	27.7	–	–	61	1660	Non-Toxic	1000	389	173	inactive	Active	–	–
Cl.Nc1c2c(nc3ccc(Br)cc13)CCCC2	79.3	4.79	20.8	6.58	7.8	45.9	12.8	–	–	103	1330	Non-Toxic	1380	170	218	inactive	Active	–	–
Nc1c2c(nc3ccc(F)cc13)CCCC2	41.9	0.978	0.751	15.4	21.3	–	–	–	–	–	–	–	–	–	–	–	–	–	–
Nc1c2c(nc3ccc(F)cc13)CCC2	28.7	0.662	1.91	28	30.3	–	–	–	–	–	–	–	–	–	–	–	–	–	–
Nc1c2c(nc3ccc(Cl)cc13)CCCC2	47.5	1.94	6.72	14.8	9.82	–	–	–	–	–	–	–	–	–	–	–	–	–	–
Nc1c2c(nc3ccc(Cl)cc13)CCCCC2	43	8.6	10.3	20.2	12	–	–	–	–	–	–	–	–	–	–	–	–	–	–
Cc1ccc2c(N)c3c(nc2c1)CCC3	53.6	0.347	8.44	7.68	15.6	–	–	–	–	–	–	–	–	–	–	–	–	–	–
Nc1c2c(nc3ccc(Br)cc13)CCCCC2	57.7	13.8	15.1	13.8	11.8	–	–	–	–	–	–	–	–	–	–	–	–	–	–

SMILES	inhibition [1] [%]	IC50 (Acetylcholinesterase) [µM]	IC50 (Cholinesterase [2]) [µM]	IC50 [3] [µM]	IC50 [4] [µM]	IC50 [5] [µM]	IC50 [6] [µM]	Activity [7]	inhibition (Cholinesterase [8]) [%]	Kp at 0.25 h [9]	concentration at 0.25 h [10] [nM]	Activity [11]	concentration at 0.25 h [12] [nM]	concentration at 1 h [13] [nM]	concentration at 1 h [14] [nM]	Activity (Rattus norvegicus [15])	Activity (Rattus norvegicus [16])	Activity (Rattus norvegicus [17])	Activity [18]
Nc1c2c(nc3cccc(Cl)c13)CCCC2	35	0.0334	0.062	19.6	23.7	–	–	–	–	–	–	–	–	–	–	–	–	–	–
Cl.Nc1c2c(nc3cccc(Cl)c13)CCCCC2	46.7	223	0.311	7.29	22.1	112	146	–	–	33	2290	Non-Toxic	762	185	32	inactive	Active	inactive	Toxic
Nc1c2c(nc3c(Cl)cc(Cl)cc13)CCC2	33.5	13.1	17.9	14.6	21.4	–	–	–	–	–	–	–	–	–	–	–	–	–	–
Cc1ccc2c(N)c3c(nc2c1)CCCCC3	50	0.104	1	15.2	9.29	–	–	–	–	–	–	–	–	–	–	–	–	–	–
Cc1ccc2nc3c(c(N)c2c1)CCC3	30.8	10	23.7	20.5	19.8	–	–	–	–	–	–	–	–	–	–	–	–	–	–
Cc1ccc2nc3c(c(N)c2c1)CCCCC3	40.1	22.5	10.6	27.1	16.6	–	–	–	–	–	–	–	–	–	–	–	–	–	–
COc1ccc2nc3c(c(N)c2c1)CCCC3.Cl	77.6	–	–	4.7	7.24	49.3	51	–	–	–	1670	–	2320	207	326	–	–	–	–
Nc1c2c(nc3c(Cl)cc(Cl)cc13)CCCC2	38.2	4.34	14.8	24	37.1	–	–	–	–	–	–	–	–	–	–	–	–	–	–
Cc1ccc2c(N)c3c(nc2c1)CCCC3.Cl	51.3	0.072	2.9	17	7.83	98.6	41.8	–	–	56	1300	Non-Toxic	731	87	251	inactive	Active	–	–
Cc1cccc2nc3c(c(N)c12)CCCCC3	54.3	0.255	0.107	12.6	17.4	–	–	–	–	–	–	–	–	–	–	–	–	–	–
Nc1c2c(nc3c(Cl)cc(Cl)cc13)CCCCC2	38.5	9.04	23.8	20	37.9	–	–	–	–	–	–	–	–	–	–	–	–	–	–
Nc1c2c(nc3cccc(Cl)c13)CCC2	24.5	–	–	27	44.9	–	–	–	6	–	–	–	–	–	–	–	–	–	–
Cl.Nc1c2c(nc3ccc(Br)cc13)CCC2	75.3	5.69	16.9	6.12	6.9	51.3	23	–	–	47	2520	Non-Toxic	1180	154	116	inactive	Active	–	–
Nc1c2c(nc3c(Br)cc(Br)cc13)CCCC2	67.7	5.18	32	15.6	18.7	–	–	–	–	–	–	–	–	–	–	–	–	–	–
COc1ccc2nc3c(c(N)c2c1)CCCCC3	53.6	17.6	4.41	20	7.67	–	–	–	–	–	–	–	–	–	–	–	–	–	–
